Test results reported in ChEMBL document CHEMBL5126562, “Surprising lipophilicity observations identify unexpected conformational effects” (Bioorg Med Chem Lett, 2022).
Values after ≈ are worked out from the molar mass of the structure shown.

Key:
[1] = Lipophilicity, logD of compound at pH 7.4; type: physicochemical; conditions: buffer
[2] = Solubility of compound at pH 7.4; type: physicochemical; conditions: buffer

Compound | logD [1] | solubility [2] [µM]
C[C@]1(CS(=O)(=O)N2CC=C(C#Cc3cccc(N4CCCC4=O)c3)CC2)NC(=O)NC1=O | 1.5 | 94 (≈ 42.9 µg/mL)
CN1CCCN(c2cnc(NCc3c(F)ccc4c3CCO4)n3cnnc23)C1=O | 1.2 | 153 (≈ 60.8 µg/mL)
O=C1CCCCN1c1cnc(NCc2c(F)ccc3c2CCO3)c2cn[nH]c(=O)c12 | 1.9 | 18 (≈ 7.37 µg/mL)
O=C([C@@H]1C[C@H]1c1cccc(N2CCCCC2=O)c1)N1CCN(C2CCC2)CC1 | 1.6 | > 3000
Cc1nc(Nc2cccc(N3CCN(C)C3=O)n2)sc1-c1cc2c(c(S(C)(=O)=O)c1)C(=O)N([C@@H](C)C1CC1)C2 | 3.4 | < 0.045
Cc1nc(Nc2cccc(N3CCCCC3=O)n2)sc1-c1cc2c(c(S(=O)(=O)NC3COC3)c1)C(=O)N([C@@H](C)C1CC1)C2 | 3.6 | 1.8 (≈ 1.12 µg/mL)
Cc1nc(Nc2cccc(N3CCCN(C)C3=O)n2)sc1-c1cc2c(c(S(C)(=O)=O)c1)C(=O)N([C@@H](C)C1CC1)C2 | 3.5 | < 0.14
O=C([C@@H]1C[C@H]1c1cccc(N2CCCC2=O)c1)N1CCN(C2CCC2)CC1 | 2 | > 4140
COc1ccc(N2CCN(C)CC2)c(CN2CCN(c3ccc(N4CCOCC4)cc3)C2=O)c1 | 1.8 | 456 (≈ 212 µg/mL)
CS(=O)(=O)c1ccc(CNC(=O)C2CCCN(c3cccc(C(F)(F)F)c3)C2=O)cc1 (stereo unspecified) | 1.5 | 94 (≈ 42.7 µg/mL)
N#Cc1cccc2ncn(CC(=O)NCc3ccc(C(F)(F)F)nc3N3CCCCC3=O)c12 | 1.8 | > 200
COc1ccc(N2CCN(C)CC2)c(CN2CCCN(c3ccc(N4CCOCC4)cc3)C2=O)c1 | 1.3 | 404 (≈ 194 µg/mL)
Cc1nc(Nc2cccc(N3CCCCC3=O)n2)sc1-c1cc2c(c(S(=O)(=O)NC3COC3)c1)C(=O)N([C@@H](C)C(F)(F)F)C2 | 3.8 | 3 (≈ 1.95 µg/mL)
CC(=O)N1CCc2cc(-c3cccc4c3CCCC4)cc(N3CCCC3=O)c21 | 3.5 | 271 (≈ 101 µg/mL)
O=C1CCCN1c1cnc(NCc2c(F)ccc3c2CCO3)n2cnnc12 | 1.3 | 
O=C1CCCCN1c1cnc(NCc2c(F)ccc3c2CCO3)n2cnnc12 | 1.3 | 351 (≈ 134 µg/mL)
CC(=O)N1CCc2cc(-c3cccc4c3CCCC4)cc(N3CCCCC3=O)c21 | 3.8 | 259 (≈ 101 µg/mL)

Compound | logD [1] | solubility [2] [µM]
O=C1CCCCN1c1cccc(C(=O)N(c2ncccc2Cl)[C@@H]2CCCNC2)c1 | -0.9 | > 973
N#Cc1cccc2ncn(CC(=O)NCc3ccc(C(F)(F)F)nc3N3CCCC3=O)c12 | 1.8 | > 2400
O=C(C1CC1c1ccc(N2CCCC2=O)cc1)N1CCN(C2CCC2)CC1 (stereo unspecified) | 2 | > 2680
C[C@]1(CS(=O)(=O)N2CC=C(C#Cc3cccc(N4CCCCC4=O)c3)CC2)NC(=O)NC1=O | 1 | 89 (≈ 41.9 µg/mL)
CS(=O)(=O)c1ccc(CNC(=O)C2CCN(c3cccc(C(F)(F)F)c3)C2=O)cc1 (stereo unspecified) | 2.1 | 15 (≈ 6.61 µg/mL)
CN1CCN(c2ccc(F)cc2CN2CCCN(c3ccc(N4CCOCC4)cc3)C2=O)CC1 | 1.6 | 387 (≈ 181 µg/mL)
COCC(=O)N1CCC(COc2ccc(N3CCCC3=O)cc2)C1 (stereo unspecified) | 0.2 | 271 (≈ 90.1 µg/mL)
Cc1nc(Nc2cccc(N3CCOC3=O)n2)sc1-c1cc2c(c(S(=O)(=O)NC3COC3)c1)C(=O)N([C@@H](C)C1CC1)C2 | > 4 | 0.021 (≈ 0.0128 µg/mL)
O=C1CCCN1c1cccc(C(=O)N(c2ncccc2Cl)[C@@H]2CCCNC2)c1 | -0.5 | 67 (≈ 26.7 µg/mL)
O=C1CCCN1c1cnc(NCc2c(F)ccc3c2CCO3)c2cn[nH]c(=O)c12 | 1.8 | 
Cc1nc(Nc2cccc(N3CCCC3=O)n2)sc1-c1cc2c(c(S(C)(=O)=O)c1)C(=O)N([C@@H](C)C1CC1)C2 [AZD-8154] | 4.4 | 0.054 (≈ 0.0298 µg/mL)
Cc1nc(Nc2cccc(N3CCCC3=O)n2)sc1-c1cc2c(c(S(=O)(=O)NC3COC3)c1)C(=O)N([C@@H](C)C(F)(F)F)C2 | > 4 | 0.081 (≈ 0.0516 µg/mL)
O=C([C@H]1C[C@@H]1c1cccc(N2CCCCC2=O)c1)N1CCN(C2CCC2)CC1 | 1.7 | 2190 (≈ 837 µg/mL)
Cc1nc(Nc2cccc(N3CCCCC3=O)n2)sc1-c1cc2c(c(S(C)(=O)=O)c1)C(=O)N([C@@H](C)C1CC1)C2 | 3.9 | 6.3 (≈ 3.56 µg/mL)
CN1CCN(c2ccc(F)cc2CN2CCN(c3ccc(N4CCOCC4)cc3)C2=O)CC1 | 2.1 | 189 (≈ 85.7 µg/mL)
COCC(=O)N1CCC(COc2ccc(N3CCCCC3=O)cc2)C1 (stereo unspecified) | -0.1 | > 3970
CN1CCN(c2cnc(NCc3c(F)ccc4c3CCO4)n3cnnc23)C1=O | 1.4 | 641 (≈ 246 µg/mL)
